This is an account of results in ChEMBL document CHEMBL6096725, “Repurposing Linezolid in Conjunction with Histone Deacetylase Inhibitor Access in the Realm of Glioblastoma Therapies” (J Med Chem, 2025).

For series [1], the target named is T1, Histone deacetylase (Homo sapiens) (UniProt Q13547+O15379+Q9UBN7+Q92769+Q9UQL6+Q8WUI4+Q9BY41+Q96DB2+P56524+Q9UKV0+Q969S8). In words: Inhibition of HDAC in human U-87 MG cells assessed as increase in acetyl histone H3 at K9 sites at 10 uM incubated for 1 hr by Western blot analysis. The class given is cell-based. Background: A western blot detects proteins with antibodies after separation by electrophoresis.

For series [2], the target named is T1, Histone deacetylase (Homo sapiens). Description: Inhibition of HDAC in human U-87 MG cells assessed as increase in acetyl histone H3 at K5 sites at 10 uM incubated for 1 hr by Western blot analysis. The class given is cell-based.
For series [3], the system named is TZM-resistant GBM cell. In words: Antitumor activity against patient-derived human TMZ-resistant GBM cells implanted in C57BL/6 mouse assessed as inhibition of tumor cell growth in brain at 10 to 20 mg/kg administered on every 3 days measured for 60 days in presence of TMZ. The class given is functional, organism-based. Particulars: dose 10-20 mg/kg, time 60.0 day.

In series [4] the test system is TZM-resistant GBM cell. In words: Disruption of DNA repair in patient-derived human TMZ-resistant GBM cells assessed as decrease in RAD51 level upto 80 uM incubated for 72 hrs by Western blot analysis. The class given is functional, cell-based.
Series [5] addresses T1, Histone deacetylase (Homo sapiens). In words: Inhibition of HDAC in human U-87 MG cells assessed as increase in acetyl histone H3 at K56 sites at 10 uM incubated for 1 hr by Western blot analysis. The class given is cell-based.
For series [6], the system named is TZM-resistant GBM cell. Description: Suppression of DNA replication in patient-derived human TMZ-resistant GBM cells by GSEA analysis. The class given is functional, cell-based.
For series [7], the system named is TZM-resistant GBM cell. In words: Induction of cell cycle arrest in patient-derived human TMZ-resistant GBM cells assessed as accumulation of cells at G2/M phase at 1 to 20 uM. The class given is functional, cell-based. Particulars: dose 1-20 µM.
Series [8] relates to TZM-resistant GBM cell. Description: Disruption of DNA repair in patient-derived human TMZ-resistant GBM cells assessed as increase in ATM phosphorylation upto 80 uM incubated for 72 hrs by Western blot analysis. The class given is functional, cell-based.
The target of series [9] is T1, Histone deacetylase (Homo sapiens). Description: Inhibition of HDAC in human U-87 MG cells assessed as increase in acetyl histone H3 at K18 sites at 10 uM incubated for 1 hr by Western blot analysis. The class given is cell-based.
For series [10], the system named is TZM-resistant GBM cell. In words: Induction of cell cycle arrest in patient-derived human TMZ-resistant GBM cells assessed as decrease in accumulation of cells at G0/G1 phase at 1 to 20 uM. The class given is functional, cell-based. Particulars: dose 1-20 µM.
Series [11] relates to TZM-resistant GBM cell. In words: Suppression of mitotic nuclear division in patient-derived human TMZ-resistant GBM cells by GSEA analysis. The class given is functional, cell-based.
Series [12] relates to TZM-resistant GBM cell. In words: Disruption of DNA repair in patient-derived human TMZ-resistant GBM cells assessed as decrease in RAD51 level at 40 uM upto 80 hrs by Western blot analysis. The class given is functional, cell-based.
Series [13] deals with T1, Histone deacetylase (Homo sapiens). In words: Inhibition of HDAC in human U-87 MG cells assessed as increase in acetyl histone H3 at K8 sites at 10 uM incubated for 1 hr by Western blot analysis. The class given is cell-based.
Series [14] concerns TZM-resistant GBM cell. In words: Effect on cellular proliferation dynamics in patient-derived human TMZ-resistant GBM cells at 10 uM incubated for 72 hrs by RNA-seq analysis. The class given is functional, cell-based.
Series [15] has as its system TZM-resistant GBM cell. In words: Induction of RAD51 degradation in human TMZ-resistant GBM cells assessed increase in RAD51 ubiquitination upto 20 uM incubated for 24 hrs by Western blot analysis. The class given is cell-based.
The target of series [16] is T1, Histone deacetylase (Homo sapiens). In words: Inhibition of HDAC in human U-87 MG cells assessed as increase in acetyl histone H3 at K14 sites at 10 uM incubated for 1 hr by Western blot analysis. The class given is cell-based.
Series [17] has the same target. Description: Inhibition of HDAC in human U-87 MG cells assessed as increase in acetyl histone H3 at K4 sites at 10 uM incubated for 1 hr by Western blot analysis. The class given is cell-based.
A short description of series [18]: Drug uptake in C57BL/6 mouse brain at 360 mg/kg, ip measured after 30 mins by UPLC analysis. Particulars: in vivo, 0.5 h. The class given is ADME, organism-based.
Series [19] has as its system TMZ-resistant CT-2A cell. In words: Antitumor activity against mouse TMZ-resistant CT-2A cells implanted in C57BL/6 mouse assessed as tumor growth inhibition at 50 mg/kg, po measured for 17 to 25 days by IVIS analysis. The class given is functional, organism-based. Particulars: time 17-25 day.
Series [20] is described as follows: Drug uptake in C57BL/6 mouse plasma at 360 mg/kg, ip measured after 30 mins by UPLC analysis. The class given is ADME, organism-based. Particulars: in vivo, 0.5 h.
Series [21] addresses T1, Histone deacetylase (Homo sapiens). Description: Inhibition of HDAC in human U-87 MG cells assessed as increase in acetyl histone H3 at K16 sites at 10 uM incubated for 1 hr by Western blot analysis. The class given is cell-based.
In series [22] the test system is U-87 MG. In words: Disruption of DNA homologous recombination repair in human U-87 MG cells assessed as HR repaired cells at 5 uM incubated for 48 hrs by flow cytometry relative to control. The class given is functional, U-87MG ATCC. In general terms: In flow cytometry, cells or beads pass a laser one at a time.
Series [23] has as its system TZM-resistant GBM cell. In words: Disruption of DNA repair in patient-derived human TMZ-resistant GBM cells assessed as decrease in CtIP level at 40 uM upto 80 hrs by Western blot analysis. The class given is functional, cell-based.
A further series concerns Mus musculus. Description: In vivo antitumor activity against patient-derived human TMZ-resistant GBM cells implanted in C57BL/6 mouse assessed as increase in animal survival at 10 to 20 mg/kg administered on every 3 days measured for 60 days in presence of TMZ. The class given is functional, organism-based. Particulars: dose 10-20 mg/kg, time 60.0 day.
The subject of series [24] is TZM-resistant GBM cell. In words: Disruption of DNA repair in patient-derived human TMZ-resistant GBM cells assessed as decrease in CtIP level upto 80 uM incubated for 72 hrs by Western blot analysis. The class given is functional, cell-based.
Series [25] has as its system U-87 MG. In words: Disruption of DNA homologous recombination repair in human U-87 MG cells assessed as HR repaired cells at 2.5 uM incubated for 48 hrs by flow cytometry relative to control. Particulars: […]. The class given is functional, U-87MG ATCC.
For series [26], the system named is TZM-resistant GBM cell. In words: Disruption of DNA repair in patient-derived human TMZ-resistant GBM cells assessed as decrease in RPA32 level upto 80 uM incubated for 72 hrs by Western blot analysis. The class given is functional, cell-based.
The test system of series [27] is TMZ-resistant CT-2A cell. In words: Antitumor activity against mouse CT-2A cells implanted in C57BL/6 mouse assessed as tumor growth inhibition at 10 mg/kg, ip measured for 10 to 17 days by IVIS analysis. The class given is functional, organism-based. Particulars: time 10-17 day.
Series [28] concerns the target T1, Histone deacetylase (Homo sapiens). In words: Inhibition of HDAC in human U-87 MG cells assessed as increase in acetyl histone H3 at K27 sites at 10 uM incubated for 1 hr by Western blot analysis. The class given is cell-based.
Series [29] concerns TZM-resistant GBM cell. In words: Disruption of DNA repair in patient-derived human TMZ-resistant GBM cells assessed as decrease in RAD51 level at 20 uM upto 80 hrs by Western blot analysis. The class given is functional, cell-based.
Series [30] concerns TZM-resistant GBM cell. Description: Disruption of DNA repair in patient-derived human TMZ-resistant GBM cells assessed as decrease in CtIP level at 20 uM upto 80 hrs by Western blot analysis. The class given is functional, cell-based.

Activity calls are given as the source filed them. The calls are words filed in the database; no cut-off is given here.

As to `O=C(/C=C/c1ccc(CNC[C@H]2CN(c3ccc(N4CCOCC4)c(F)c3)C(=O)O2)cc1)NO`, the inhibition result (in series [1]; in series [2]; in the series with TZM-resistant GBM cell [3]; in [5]; in series [9]; in series [13]) was “Active” each time. Besides, the inhibition result (in series [16]; in [17]; with TMZ-resistant CT-2A cell [19]; in series [21]; in the series on TMZ-resistant CT-2A cell [27]; in series [28]) was “Active” each time. The outcome in the series with TZM-resistant GBM cell [4], with TZM-resistant GBM cell [6], in the series with TZM-resistant GBM cell [7], in the series with TZM-resistant GBM cell [10], in the series on TZM-resistant GBM cell [11] and in the series on TZM-resistant GBM cell [14] was Active. Moreover, the outcome with TZM-resistant GBM cell [15], in the series with Mus musculus, in the series on TZM-resistant GBM cell [24] and in the series on TZM-resistant GBM cell [26] was Active. The Activity result is recorded as “Active; Result Suggests Activation Of Physiological Response To Dsbs Induced By Compound” in the series on TZM-resistant GBM cell [8]; “Active; Rapid And Significant Decrease In Expression Observed Over Time” in the series with TZM-resistant GBM cell [12]; 5.06% in the series with U-87 MG [22]; “Active; Rapid And Significant Decrease In Expression Observed Over Time” in the series on TZM-resistant GBM cell [23]; 11.4% with U-87 MG [25]. The Drug uptake entry in series [18] and in series [20] was “Active” throughout.
For the molecule `C[C@@H]1C[C@@H]([C@H](O)CC2CC(=O)NC(=O)C2)C(=O)[C@@H](C)C1`, the Activity result in the series on TZM-resistant GBM cell [29] and in the series with TZM-resistant GBM cell [30] was “Active; Less Pronounced Effect Observed” in each case.
